In this assay the target is wild-type human cardiac sodium channel, hNav1.5 (Homo sapiens, UniProt Q14524). Put plainly: Late INa screening assay (QPatch whole cell patch clamp, tefluthrin-enhanced late sodium current). To be noted: HEK293 hNav1.5, late INa activated with 10 μM Tefluthrin. The class given is cell-based. The procedure:
The late sodium current (Late INa) and peak sodium current (Peak INa) assays are performed on an automated electrophysiology platform, QPatch 16X (Sophion Bioscience, Copenhagen, Denmark), which uses the whole cell patch clamp technique to measure currents through the cell membrane of up to 16 cells at a time. The assay uses an HEK293 (human embryonic kidney) cell line heterologously expressing the wild-type human cardiac sodium channel, hNav1.5, purchased from Millipore (Billerica, Mass.). No beta subunits were coexpressed with the Na channel alpha subunit. Cells are maintained with standard tissue culture procedures and stable channel expression is maintained with 400 μg/mL Geneticin in the culture medium. Cells isolated for use on QPatch are incubated for 5 minutes in Detachin 1X (Genlantis, San Diego, USA) at 37° C. to ensure that 80-90% of the cells are single and not part of a cell cluster. Experiments are carried out at 23-25° C.
For both the Late INa and Peak INa assays, series resistance compensation is set to 100% and series resistance and whole-cell compensation are performed automatically. Currents are digitized at 25 kHz and low-pass filtered at 12 kHz and 10 kHz for the late and peak INa assays, respectively. Currents through open sodium channels are automatically recorded and stored in the Sophion Bioscience Oracle database (Sophion Bioscience, Copenhagen, Denmark). Analysis is performed using QPatch Assay and database software and data are compiled in Excel.
Compound stocks are routinely made by the Gilead Sample Bank in plastic vials to 10 mM in dimethyl sulfoxide (DMSO). In some cases, when compounds are not soluble in DMSO, they are made in 100% ethanol. Stocks are sonicated as necessary. The extracellular solution for screening Late INa is composed of: 140 mM NaCl, 4 mM KCl, 1.8 mM CaCl2, 0.75 mM MgCl2 and 5 mM HEPES with pH adjusted to 7.4 using NaOH. The intracellular solution used to perfuse the inside of the cells for both the Late INa and Peak INa assays contains: 120 mM CsF, 20 mM CsCl, 5 mM EGTA, 5 mM HEPES and pH adjusted to 7.4 with CsOH. Compounds are diluted in extracellular solution to 1 μM in glass vials and then transferred to glass well plates before robotic addition to the cells. A 0 mM Na extracellular solution (0 Na-ECF) is used at the end of each experiment for the Late INa and Peak INa assays to measure baseline current contains: 140 mM N-methyl-D-glucamine; 4 mM KCl; 1.8 mM CaCl2; 0.75 mM MgCl2; 5 mM HEPES and pH was adjusted to 7.4 with HCl.
For the hNav1.5 Late INa assay, sodium channels are activated every 10 seconds (0.1 Hz) by depolarizing the cell membrane to −20 mV for 250 milliseconds (ms) from a holding potential of −120 mV. In response to a −20 mV voltage step, typical hNav1.5 sodium currents activate rapidly to a peak negative current and then inactivate nearly completely within 3-4 ms.
Compounds were tested to determine their activity in blocking the late sodium current. Late INa was generated by adding 10 μM Tefluthrin (pyrethroid) to the extracellular solution while recording Na currents. To confirm the block of late INa observed using the automated screening method, a second late INa enhancer (ATX-II) and the manual patch clamp method were used. ATX-II and tefluthrin occupy distinct, non-overlapping binding sites and modify Na^+ channel function differently to increase late INa. Compounds tested have been found generally to inhibit the enhanced late INa caused by either late INa enhancer. For the purposes of the screening, late INa is defined as the mean current between 225 ms and 250 ms after stepping to −20 mV to activate Na channels. After establishing the whole cell recording configuration, late INa activator is added to each well 4 times over a 16-17 minute period so that the late component of the Na current reaches a stable value. Compounds were then added (typically at 1 μM), in the presence of the late INa activator, with 3 additions over the course of 7 or 8 minutes. […]
(Patch clamp records ionic current or voltage across a cell membrane.)

wild-type human cardiac sodium channel, hNav1.5, sequence (Q14524 whole entry): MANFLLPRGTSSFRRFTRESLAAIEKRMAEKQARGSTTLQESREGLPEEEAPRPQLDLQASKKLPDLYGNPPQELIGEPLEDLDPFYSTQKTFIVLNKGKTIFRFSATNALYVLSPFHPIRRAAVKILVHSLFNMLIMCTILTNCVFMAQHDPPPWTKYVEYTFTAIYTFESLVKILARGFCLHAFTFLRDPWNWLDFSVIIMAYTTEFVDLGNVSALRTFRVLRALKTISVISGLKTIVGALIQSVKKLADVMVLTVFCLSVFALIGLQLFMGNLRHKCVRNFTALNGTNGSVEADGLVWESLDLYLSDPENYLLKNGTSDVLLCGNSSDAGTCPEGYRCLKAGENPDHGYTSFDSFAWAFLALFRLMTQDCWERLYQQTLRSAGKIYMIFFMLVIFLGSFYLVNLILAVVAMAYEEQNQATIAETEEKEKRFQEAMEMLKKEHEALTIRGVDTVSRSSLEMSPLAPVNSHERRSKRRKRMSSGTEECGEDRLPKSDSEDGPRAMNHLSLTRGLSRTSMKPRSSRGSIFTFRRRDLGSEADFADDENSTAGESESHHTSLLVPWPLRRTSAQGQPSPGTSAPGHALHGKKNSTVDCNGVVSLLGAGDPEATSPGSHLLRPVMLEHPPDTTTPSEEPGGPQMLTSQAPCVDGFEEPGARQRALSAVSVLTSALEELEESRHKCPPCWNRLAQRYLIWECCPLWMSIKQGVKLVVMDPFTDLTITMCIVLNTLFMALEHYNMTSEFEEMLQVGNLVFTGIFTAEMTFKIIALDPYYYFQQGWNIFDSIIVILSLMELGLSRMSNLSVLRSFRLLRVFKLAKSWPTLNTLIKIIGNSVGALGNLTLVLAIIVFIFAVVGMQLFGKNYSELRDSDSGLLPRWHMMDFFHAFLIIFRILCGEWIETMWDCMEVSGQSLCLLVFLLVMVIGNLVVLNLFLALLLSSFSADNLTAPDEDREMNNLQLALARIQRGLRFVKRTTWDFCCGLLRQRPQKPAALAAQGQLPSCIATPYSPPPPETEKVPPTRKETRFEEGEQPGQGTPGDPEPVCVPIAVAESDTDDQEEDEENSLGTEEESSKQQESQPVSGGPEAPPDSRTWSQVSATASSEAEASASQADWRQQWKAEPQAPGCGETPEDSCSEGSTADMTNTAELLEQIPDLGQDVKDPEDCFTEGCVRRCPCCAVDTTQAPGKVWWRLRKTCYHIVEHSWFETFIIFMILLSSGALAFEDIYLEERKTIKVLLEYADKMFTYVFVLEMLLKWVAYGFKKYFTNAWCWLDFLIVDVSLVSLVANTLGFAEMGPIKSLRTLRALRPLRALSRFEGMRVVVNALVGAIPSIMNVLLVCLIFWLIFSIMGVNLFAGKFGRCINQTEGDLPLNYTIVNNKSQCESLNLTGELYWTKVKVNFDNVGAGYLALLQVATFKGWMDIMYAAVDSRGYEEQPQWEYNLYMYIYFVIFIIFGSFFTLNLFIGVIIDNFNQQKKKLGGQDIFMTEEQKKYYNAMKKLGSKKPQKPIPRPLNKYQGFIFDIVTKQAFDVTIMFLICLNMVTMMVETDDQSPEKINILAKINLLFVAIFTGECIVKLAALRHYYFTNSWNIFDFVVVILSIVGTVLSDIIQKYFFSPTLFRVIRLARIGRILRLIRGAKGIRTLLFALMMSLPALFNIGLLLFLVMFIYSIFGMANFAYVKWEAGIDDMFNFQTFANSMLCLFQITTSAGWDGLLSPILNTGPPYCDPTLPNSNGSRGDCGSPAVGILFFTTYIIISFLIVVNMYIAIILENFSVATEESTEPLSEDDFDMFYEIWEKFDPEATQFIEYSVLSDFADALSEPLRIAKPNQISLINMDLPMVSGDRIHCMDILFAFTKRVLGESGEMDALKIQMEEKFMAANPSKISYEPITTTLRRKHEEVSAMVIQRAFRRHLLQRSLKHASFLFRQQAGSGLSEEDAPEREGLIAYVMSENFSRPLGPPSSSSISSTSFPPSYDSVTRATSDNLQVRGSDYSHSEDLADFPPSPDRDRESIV

With `CN[C@@H]1CCN(C2=NCCOc3ccc(-c4ccc(C(F)(F)F)cc4)cc32)C1` [II-39, (R)—N-methyl-1-(7-(4-(trifluoromethyl)phenyl)-2,3-dihydrobenzo[f][1,4]oxazepin-5-yl)pyrrolidin-3-amine], the inhibition at 1 µM was found to be 26%. `FC(F)(F)c1ccc(-c2ccc3c(c2)C(NC2CCNC2)=NCCO3)cc1` (centres unmarked) [II-59, N-(pyrrolidin-3-yl)-7-(4-(trifluoromethyl)phenyl)-2,3-dihydrobenzo[f][1,4]oxazepin-5-amine]: the inhibition at 1 µM is 8%. On to `FC(F)(F)c1ccc(-c2ccc3c(c2)C(NC2CCN(Cc4ncccn4)C2)=NCCO3)cc1` (centres unmarked) [II-34, N-(1-(pyrimidin-2-ylmethyl)pyrrolidin-3-yl)-7-(4-(trifluoromethyl)phenyl)-2,3-dihydrobenzo[f][1,4]oxazepin-5-amine], for which the inhibition at 1 µM stood at 3%. Regarding `FC(F)(F)CNC1=NCCOc2ccc(-c3ccc(C(F)(F)F)cc3)cc21` [II-29, N-(2,2,2-trifluoroethyl)-7-(4-(trifluoromethyl)phenyl)-2,3-dihydrobenzo[f][1,4]oxazepin-5-amine], the inhibition at 1 µM amounted to 7%. For the compound `FC(F)(F)c1ccc(-c2ccc3c(c2)C(NCc2ccccn2)=NCCO3)cc1` [II-10, N-(pyridin-2-ylmethyl)-7-(4-(trifluoromethyl)phenyl)-2,3-dihydrobenzo[f][1,4]oxazepin-5-amine], the inhibition at 1 µM worked out at 32%.

As to `FC(F)(F)c1ccc(-c2ccc3c(c2)C(N2CCCC2)=NCCO3)cc1` [II-3, 5-(pyrrolidin-1-yl)-7-(4-(trifluoromethyl)phenyl)-2,3-dihydrobenzo[f][1,4]oxazepine], the inhibition at 1 µM came to 25%.

`FC(F)(F)c1ccc(-c2ccc3c(c2)C(Nc2ccccc2)=NCCO3)cc1` [II-32, N-phenyl-7-(4-(trifluoromethyl)phenyl)-2,3-dihydrobenzo[f][1,4]oxazepin-5-amine]: the inhibition at 1 µM came to 26%. With `CC(=O)c1cnc2n1CCOc1ccc(-c3ccc(C(F)(F)F)cc3)cc1-2` [Compound I-15, 1-(10-(4-(trifluoromethyl)phenyl)-5,6-dihydrobenzo[f]imidazo[1,2-d][1,4]oxazepin-3-yl)ethanone], the inhibition at 1 µM was determined as 12%.

In the case of `FC(F)(F)c1ccc(-c2ccc3c(c2)C(N2CCC(NCc4ncccn4)C2)=NCCO3)cc1` (centres unmarked) [II-37, N-(pyrimidin-2-ylmethyl)-1-(7-(4-(trifluoromethyl)phenyl)-2,3-dihydrobenzo[f][1,4]oxazepin-5-yl)pyrrolidin-3-amine], the inhibition at 1 µM stood at 20%. In the case of `FC(F)(F)c1ccc(-c2ccc3c(c2)C(N2CCC(N4CCCC4)C2)=NCCO3)cc1` (centres unmarked) [II-36, 5-(1,3′-bipyrrolidin-1′-yl)-7-(4-(trifluoromethyl)phenyl)-2,3-dihydrobenzo[f][1,4]oxazepine], the inhibition at 1 µM is 7%.

Regarding `CC(C)(C)OC(=O)NC1CCN(C2=NCCOc3ccc(-c4ccc(C(F)(F)F)cc4)cc32)C1` (centres unmarked) [II-57, tert-butyl 1-(7-(4-(trifluoromethyl)phenyl)-2,3-dihydrobenzo[f][1,4]oxazepin-5-yl)pyrrolidin-3-ylcarbamate], the inhibition at 1 µM was found to be 23%.

In the case of `CC(C)(C)OC(=O)N[C@H]1CCN(C2=NCCOc3ccc(-c4ccc(C(F)(F)F)cc4)cc32)C1` [II-13, (S)-tert-butyl 1-(7-(4-(trifluoromethyl)phenyl)-2,3-dihydrobenzo[f][1,4]oxazepin-5-yl)pyrrolidin-3-ylcarbamate], the inhibition at 1 µM came to 15%.

With `CCN(CC)[C@@H]1CCN(C2=NCCOc3ccc(-c4ccc(C(F)(F)F)cc4)cc32)C1` [II-49, (R)—N,N-diethyl-1-(7-(4-(trifluoromethyl)phenyl)-2,3-dihydrobenzo[f][1,4]oxazepin-5-yl)pyrrolidin-3-amine], the inhibition at 1 µM is 11%. `FC(F)(F)c1ccc(-c2ccc3c(c2)C(NCCOc2ccccc2Cl)=NCCO3)cc1` [II-24, N-(2-(2-chlorophenoxy)ethyl)-7-(4-(trifluoromethyl)phenyl)-2,3-dihydrobenzo[f][1,4]oxazepin-5-amine]: the inhibition at 1 µM is 26%. Turning to `N[C@H]1CCN(C2=NCCOc3ccc(-c4ccc(C(F)(F)F)cc4)cc32)C1` [II-56, (S)-1-(7-(4-(trifluoromethyl)phenyl)-2,3-dihydrobenzo[f][1,4]oxazepin-5-yl)pyrrolidin-3-amine], the inhibition at 1 µM is 17%. Take `FC1(F)CCN(C2=NCCOc3ccc(-c4ccc(C(F)(F)F)cc4)cc32)CC1` [II-21, 5-(4,4-difluoropiperidin-1-yl)-7-(4-(trifluoromethyl)phenyl)-2,3-dihydrobenzo[f][1,4]oxazepine]: the inhibition at 1 µM was found to be 13%. Consider `FC(F)(F)c1ccc(-c2ccc3c(c2)-c2nnc(C4CC4)n2CCO3)cc1` [Compound I-5, 3-cyclopropyl-10-(4-(trifluoromethyl)phenyl)-5,6-dihydrobenzo[f][1,2,4]triazolo[4,3-d][1,4]oxazepine], for which the inhibition at 1 µM turned out to be 18%. For the compound `CN(C1=NCCOc2ccc(-c3ccc(C(F)(F)F)cc3)cc21)C1CC1` [II-8, N-cyclopropyl-N-methyl-7-(4-(trifluoromethyl)phenyl)-2,3-dihydrobenzo[f][1,4]oxazepin-5-amine], the inhibition at 1 µM stood at 13%. As for `FC(F)(F)c1ccc(-c2ccc3c(c2)C(N2CCC(N4CCOCC4)C2)=NCCO3)cc1` (centres unmarked) [II-55, 5-(3-morpholinopyrrolidin-1-yl)-7-(4-(trifluoromethyl)phenyl)-2,3-dihydrobenzo[f][1,4]oxazepine], the inhibition at 1 µM was determined as 18%. In the case of `OC1CCN(C2=NCCOc3ccc(-c4ccc(C(F)(F)F)cc4)cc32)C1` (centres unmarked) [II-23, 1-(7-(4-(trifluoromethyl)phenyl)-2,3-dihydrobenzo[f][1,4]oxazepin-5-yl)pyrrolidin-3-ol], the inhibition at 1 µM came to 9%. For the compound `N[C@@H]1CCN(C2=NCCOc3ccc(-c4ccc(C(F)(F)F)cc4)cc32)C1` [II-41, (R)-1-(7-(4-(trifluoromethyl)phenyl)-2,3-dihydrobenzo[f][1,4]oxazepin-5-yl)pyrrolidin-3-amine], the inhibition at 1 µM is 6%.

With `Fc1cccnc1CNC1=NCCOc2ccc(-c3ccc(C(F)(F)F)cc3)cc21` [II-9, N-((3-fluoropyridin-2-yl)methyl)-7-(4-(trifluoromethyl)phenyl)-2,3-dihydrobenzo[f][1,4]oxazepin-5-amine], the inhibition at 1 µM was found to be 23%. For the compound `FC(F)(F)c1ccc(-c2ccc3c(c2)C(N2CCN(C4CC4)CC2)=NCCO3)cc1` [II-31, 5-(4-cyclopropylpiperazin-1-yl)-7-(4-(trifluoromethyl)phenyl)-2,3-dihydrobenzo[f][1,4]oxazepine], the inhibition at 1 µM was 24%. Regarding `O=C(N[C@@H]1CCN(C2=NCCOc3ccc(-c4ccc(C(F)(F)F)cc4)cc32)C1)c1ccccn1` [II-47, (R)—N-(1-(7-(4-(trifluoromethyl)phenyl)-2,3-dihydrobenzo[f][1,4]oxazepin-5-yl)pyrrolidin-3-yl)picolinamide], the inhibition at 1 µM amounted to 18%.

For `CN(Cc1ccccc1)C1=NCCOc2ccc(-c3ccc(C(F)(F)F)cc3)cc21` [II-5, N-benzyl-N-methyl-7-(4-(trifluoromethyl)phenyl)-2,3-dihydrobenzo[f][1,4]oxazepin-5-amine], the inhibition at 1 µM was 28%. Turning to `OC[C@H]1CCN(C2=NCCOc3ccc(-c4ccc(C(F)(F)F)cc4)cc32)C1` [II-16, (S)-(1-(7-(4-(trifluoromethyl)phenyl)-2,3-dihydrobenzo[f][1,4]oxazepin-5-yl)pyrrolidin-3-yl)methanol], the inhibition at 1 µM came to 13%.

The inhibition is the percentage by which the read-out fell short of the control.

(Values after patent US9695192B2, “Fused heterocyclic compounds as ion channel modulators” (GILEAD SCIENCES, INC., priority 2011, dated 2017).)
